Data from patent US5414000A, “Antiviral pyrinyl substituted tetrahydropyrans” (Bristol-Myers Squibb Co., priority 1994, dated 1995).
pIC50: −log10 of the molar value.

Assays:
Format in all cases: cell-based
[1] = test system: HSV-1 (herpes simplex virus type 1, strain Schooler); assay: HSV-1 antiviral plaque reduction assay in WI-38 cell culture; conditions: Human alphaherpesvirus 1, 96 h; HSV-1 strain Schooler; WI-38 monolayers; at least 50% plaque reduction vs virus controls; 4 days at 37° C.; read-out: ID50 HSV-1
Experimental: (§1) Assays were performed in cell culture systems to determine the concentrations of compounds that are effective in preventing several kinds of viral infections. Abbreviations:
(§2) HSV-1 (herpes simplex virus type 1, strain Schooler), HSV-2 (herpes simplex virus type 2, strain 186), VZV (varicella zoster virus, strain ELLEN), HCMC (human cytomegalovirus, strain AD 169). Cell Culture Assays:
(§3) HSV-1, HSV-2, HCMV and VZV antiviral assays: Virus was adsorbed to WI-38 cell culture monolayers in 5 well culture plates (Costar, Cambridge, Mass.) for 1 hour prior to addition of maintenance medium containing duplicate dilutions of the test compound. Inhibition of plaque development was evaluated on fixed and stained monolayers after 4 days incubation at 37° C. for HSV-1 and HSV-2, and after 5-7 days incubation at 37° C. for HCMV and VZV. ID50 values were determined from the drug concentration which conferred at least a 50% plaque reduction compared to virus controls.

[2] = test system: HSV-2 (herpes simplex virus type 2, strain 186); assay: HSV-2 antiviral plaque reduction assay in WI-38 cell culture; conditions: Human alphaherpesvirus 2, 96 h; HSV-2 strain 186; WI-38 monolayers; at least 50% plaque reduction vs virus controls; 4 days at 37° C.; read-out: ID50 HSV-2
Experimental: as §1, §2, §3

[3] = test system: VZV (varicella zoster virus, strain ELLEN); assay: VZV antiviral plaque reduction assay in WI-38 cell culture; conditions: Human alphaherpesvirus 3, WI-38 monolayers, at least 50% plaque reduction vs virus controls, 5-7 days at 37° C., read-out: ID50 VZV
Experimental: as §1, §2, §3

[4] = test system: HCMV (human cytomegalovirus, strain AD 169); assay: HCMV antiviral plaque reduction assay in WI-38 cell culture; conditions: Human betaherpesvirus 5; HCMV strain AD 169; WI-38 monolayers; at least 50% plaque reduction vs virus controls; 5-7 days at 37° C.; read-out: ID50 HCMV
Experimental: as §1, §2, §3

Nc1nc2c(ncn2[C@@H]2CO[C@H](CO)[C@@H](O)C2)c(=O)[nH]1 [Example 1, [3S-(3α, 5β, 6α)]-2-Amino-1,9-dihydro-9-[tetrahydro-5-hydroxy-6-(hydroxymethyl)-2H-pyran-3-yl]-6H-purin-6-one]
pIC50 [1]: 4.74
pIC50 [2]: 4.74
pIC50 [3]: 4.44 to 4.74
pIC50 [4]: 4.44 to 4.74

Nc1ncnc2c1ncn2[C@@H]1CO[C@H](CO)[C@@H](O)C1 [Example 2, [2R-(2α, 3β, 5α)]-5-(6-Amino-9H-purin-9yl)tetrahydro-3-hydroxy-2H-pyran-2-methanol]
pIC50 [1]: 4.72 to 5.10
pIC50 [2]: 4.72 to 5.10
pIC50 [3]: 4.42
pIC50 [4]: 4.42 to 5.40

Nc1ccn([C@@H]2CO[C@H](CO)[C@@H](O)C2)c(=O)n1 [Example 3, [3S-(3α, 5β, 6α)]-4-Amino-1-[tetrahydro-5-hydroxy-6-(hydroxymethyl) -2H-pyran-3-yl]-2-(1H) -pyrimidinone]
pIC50 [1]: 6.10 to 6.40
pIC50 [2]: 6.10 to 6.40
pIC50 [3]: 5.10 to 5.40
pIC50 [4]: 5.70

O=c1[nH]c(=O)n([C@@H]2CO[C@H](CO)[C@@H](O)C2)cc1I [Example 4, [3S-(3α, 5β, 6α)]-5-Iodo-1-[tetrahydro-5-hydroxy-6-(hydroxymethyl) -2H-pyran-3-yl]-2,4 (1H, 3H) -pyrimidinedione]
pIC50 [1]: 5.85 to 6.52
pIC50 [2]: 5.27 to 5.52
pIC50 [3]: 3.57 to 4.17
pIC50 [4]: < 3.57

Cc1cn([C@@H]2CO[C@H](CO)[C@@H](O)C2)c(=O)[nH]c1=O [Example 5, [3S-(3α, 5β, 6α)]-5-Methyl-1-[tetrahydro-5-hydroxy-6-(hydroxymethyl)-2H-pyran-3-yl]-2,4 (1H, 3H)-pyrimidinedione]
pIC50 [1]: 3.41
pIC50 [2]: < 3.41
pIC50 [3]: 3.41 to 4.41
pIC50 [4]: ≤ 3.41

O=c1[nH]c(=O)n([C@@H]2CO[C@H](CO)[C@@H](O)C2)cc1/C=C/Br [Example 6]
pIC50 [1]: 4.14 to 4.54
pIC50 [2]: < 3.54
pIC50 [3]: 4.84 to 5.24
pIC50 [4]: < 3.54
